Test results reported in patent publication US20220313698A1, “MODULATORS OF CYSTIC FIBROSIS TRANSMEMBRANE CONDUCTANCE REGULATOR” (Vertex Pharmaceuticals Incorporated, priority 2019, published 2022).

Target: CFTR-mediated chloride transport (Homo sapiens, UniProt P13569)
Test: Corrector Assay A - membrane potential dye assay (enteroid cells)
Details: for Corrector Assay A % activity: % of chloride transport of triple combination control (1 μM (14S)-dispiro macrocycle + 3 μM tezacaftor + 300 nM ivacaftor); for EC50: read-out: Corrector Assay A EC50, human intestinal enteroid cells, 18-24 h incubation, acute 10 μM forskolin + 300 nM ivacaftor

Row | Structure (SMILES) | Corrector Assay A % activity | EC50 [µM]
1 | CC(C)(C)c1ccnc(C2CC[C@@H]3CN(c4nc(C(C)(C)C)ncc4C(=O)NS(=O)(=O)c4cccc(n4)N2)C(C)(C)C3)c1 (single isomer, unassigned) [Compound 1] | + (+ is <30%) | –
2 | CC(C)(C)c1ccnc(C2CC[C@@H]3CN(c4nc(C(C)(C)C)ncc4C(=O)NS(=O)(=O)c4cccc(n4)N2)C(C)(C)C3)c1 (single isomer, unassigned) [Compound 2] | +++ (+++ is >60%) | < 1
3 | Cc1cccc2cc3c(nc12)N1C[C@@H](CCC(c2cc(C(C)(C)C)ccn2)Nc2cccc(n2)S(=O)(=O)NC3=O)CC1(C)C (single isomer, unassigned) [Compound 3] | +++ (+++ is >60%) | < 1
4 | Cc1cccc2cc3c(nc12)N1C[C@@H](CCC(c2cc(C(C)(C)C)ccn2)Nc2cccc(n2)S(=O)(=O)NC3=O)CC1(C)C (single isomer, unassigned) [Compound 4] | ++ (++ is 30-60%) | < 1
5 | Cc1ccc2nc3c(cc2c1)C(=O)NS(=O)(=O)c1cccc(n1)N[C@H](c1cc(C(C)(C)C)ccn1)CC[C@@H]1CN3C(C)(C)C1 (single isomer, unassigned) [Compound 5] | +++ (+++ is >60%) | < 1
6 | Cc1ccc2nc3c(cc2c1)C(=O)NS(=O)(=O)c1cccc(n1)N[C@H](c1cc(C(C)(C)C)ccn1)CC[C@@H]1CN3C(C)(C)C1 (single isomer, unassigned) [Compound 6] | ++ (++ is 30-60%) | < 1
7 | Cc1ccc2cc3c(nc2c1)N1C[C@@H](CC[C@@H](c2cc(C(C)(C)C)ccn2)Nc2cccc(n2)S(=O)(=O)NC3=O)CC1(C)C (single isomer, unassigned) [Compound 7] | +++ (+++ is >60%) | < 1
8 | Cc1ccc2cc3c(nc2c1)N1C[C@@H](CC[C@@H](c2cc(C(C)(C)C)ccn2)Nc2cccc(n2)S(=O)(=O)NC3=O)CC1(C)C (single isomer, unassigned) [Compound 8] | ++ (++ is 30-60%) | < 1
9 | CC(C)(C)c1ccnc([C@@H]2CC[C@@H]3CN(c4nc5ccccc5cc4C(=O)NS(=O)(=O)c4cccc(n4)N2)C(C)(C)C3)c1 (single isomer, unassigned) [Compound 9] | +++ (+++ is >60%) | < 1
10 | CC(C)(C)c1ccnc([C@@H]2CC[C@@H]3CN(c4nc5ccccc5cc4C(=O)NS(=O)(=O)c4cccc(n4)N2)C(C)(C)C3)c1 (single isomer, unassigned) [Compound 10] | ++ (++ is 30-60%) | < 1
11 | CC(C)(C)c1ccc2c(n1)N1C[C@@H](CCC(c3cc(C4COC4)ccn3)Nc3cccc(n3)S(=O)(=O)NC2=O)CC1(C)C (single isomer, unassigned) [Compound 25] | +++ (+++ is >60%) | < 1
12 | CC(C)(C)c1ccc2c(n1)N1C[C@@H](CCC(c3cc(C4COC4)ccn3)Nc3cccc(n3)S(=O)(=O)NC2=O)CC1(C)C (single isomer, unassigned) [Compound 26] | +++ (+++ is >60%) | < 1
13 | CC(C)(C)c1ccc([C@@H]2CC[C@@H]3CN(c4nc(C(C)(C)C)ccc4C(=O)NS(=O)(=O)c4cccc(n4)N2)C(C)(C)C3)cc1 (single isomer, unassigned) [Compound 37] | ++ (++ is 30-60%) | < 1
14 | CC(C)(C)c1ccc([C@@H]2CC[C@@H]3CN(c4nc(C(C)(C)C)ccc4C(=O)NS(=O)(=O)c4cccc(n4)N2)C(C)(C)C3)cc1 (single isomer, unassigned) [Compound 38] | +++ (+++ is >60%) | < 1
15 | CC(C)(C)c1ccc2c(n1)N1C[C@@H](CCC(c3ccc(C4COC4)cn3)Nc3cccc(n3)S(=O)(=O)NC2=O)CC1(C)C (single isomer, unassigned) [Compound 39] | +++ (+++ is >60%) | < 1
16 | CC(C)(C)c1ccc2c(n1)N1C[C@@H](CCC(C)(c3ccccn3)Nc3cccc(n3)S(=O)(=O)NC2=O)CC1(C)C (single isomer, unassigned) [Compound 44] | ++ (++ is 30-60%) | < 1
17 | CC(C)(C)c1ccc2c(n1)N1C[C@@H](CCC(C)(c3ccccn3)Nc3cccc(n3)S(=O)(=O)NC2=O)CC1(C)C (single isomer, unassigned) [Compound 45] | ++ (++ is 30-60%) | < 1

Results, then the molecule that gave them:

Row | Corrector Assay A % activity | EC50 [µM] | Structure (SMILES)
18 | ++ (++ is 30-60%) | < 1 | CC(O)CC1CC[C@@H]2CN(c3nc(C(C)(C)C)ccc3C(=O)NS(=O)(=O)c3cccc(n3)N1)C(C)(C)C2 (single isomer, unassigned) [Compound 20]
19 | ++ (++ is 30-60%) | < 1 | CC(O)CC1CC[C@@H]2CN(c3nc(C(C)(C)C)ccc3C(=O)NS(=O)(=O)c3cccc(n3)N1)C(C)(C)C2 (single isomer, unassigned) [Compound 22]
20 | +++ (+++ is >60%) | < 1 | CC(C)(O)/C=C/CC1CC[C@@H]2CN(c3nc(C(C)(C)C)ccc3C(=O)NS(=O)(=O)c3cccc(n3)N1)C(C)(C)C2 (single isomer, unassigned) [Compound 23]
21 | ++ (++ is 30-60%) | < 1 | CC(C)(O)/C=C/CC1CC[C@@H]2CN(c3nc(C(C)(C)C)ccc3C(=O)NS(=O)(=O)c3cccc(n3)N1)C(C)(C)C2 (single isomer, unassigned) [Compound 24]
22 | ++ (++ is 30-60%) | < 1 | C[C@@H](O)C[C@@H]1CC[C@@H]2CN(c3nc(C(C)(C)C)ccc3C(=O)NS(=O)(=O)c3cccc(n3)N1)C(C)(C)C2 (single isomer, unassigned) [Compound 27]
23 | +++ (+++ is >60%) | < 1 | C[C@@H](O)C[C@@H]1CC[C@@H]2CN(c3nc(C(C)(C)C)ccc3C(=O)NS(=O)(=O)c3cccc(n3)N1)C(C)(C)C2 (single isomer, unassigned) [Compound 28]
24 | ++ (++ is 30-60%) | < 1 | CC(C)(C)c1ccc2c(n1)N1C[C@@H](CCC(CC(O)CO)Nc3cccc(n3)S(=O)(=O)NC2=O)CC1(C)C (single isomer, unassigned) [Compound 30]
25 | ++ (++ is 30-60%) | < 1 | CC(C)(C)c1ccc2c(n1)N1C[C@@H](CCC(CC(O)CO)Nc3cccc(n3)S(=O)(=O)NC2=O)CC1(C)C (single isomer, unassigned) [Compound 31]
26 | +++ (+++ is >60%) | < 1 | CC(C)(C)c1ccc2c(n1)N1C[C@@H](CCC(CC(O)CO)Nc3cccc(n3)S(=O)(=O)NC2=O)CC1(C)C (single isomer, unassigned) [Compound 32]
27 | +++ (+++ is >60%) | < 1 | CC(C)(C)c1ccc2c(n1)N1C[C@@H](CCC(CC(O)CO)Nc3cccc(n3)S(=O)(=O)NC2=O)CC1(C)C (single isomer, unassigned) [Compound 33]
28 | +++ (+++ is >60%) | < 1 | C=CCC1CC[C@@H]2CN(c3nc(C(C)(C)C)ccc3C(=O)NS(=O)(=O)c3cccc(n3)N1)C(C)(C)C2 (single isomer, unassigned) [Compound 34]
29 | ++ (++ is 30-60%) | < 1 | C=CCC1CC[C@@H]2CN(c3nc(C(C)(C)C)ccc3C(=O)NS(=O)(=O)c3cccc(n3)N1)C(C)(C)C2 (single isomer, unassigned) [Compound 35]
30 | +++ (+++ is >60%) | < 1 | CC(C)(C)c1ccc2c(n1)N1C[C@@H](CCC(c3cc(C(C)(C)O)ccn3)Nc3cccc(n3)S(=O)(=O)NC2=O)CC1(C)C (single isomer, unassigned) [Compound 36]
31 | ++ (++ is 30-60%) | < 1 | CC(C)(C)c1cccc(C2CC[C@@H]3CN(c4nc(C(C)(C)C)ccc4C(=O)NS(=O)(=O)c4cccc(n4)N2)C(C)(C)C3)c1 (single isomer, unassigned) [Compound 40]
32 | +++ (+++ is >60%) | < 1 | CC(C)(C)c1cccc(C2CC[C@@H]3CN(c4nc(C(C)(C)C)ccc4C(=O)NS(=O)(=O)c4cccc(n4)N2)C(C)(C)C3)c1 (single isomer, unassigned) [Compound 41]
33 | ++ (++ is 30-60%) | < 1 | CC1(C)CC(C2CC[C@@H]3CN(c4nc(C(C)(C)C)ccc4C(=O)NS(=O)(=O)c4cccc(n4)N2)C(C)(C)C3)CC(C)(C)O1 (single isomer, unassigned) [Compound 42]
34 | + (+ is <30%) | – | CC1(C)CC(C2CC[C@@H]3CN(c4nc(C(C)(C)C)ccc4C(=O)NS(=O)(=O)c4cccc(n4)N2)C(C)(C)C3)CC(C)(C)O1 (single isomer, unassigned) [Compound 43]
35 | +++ (+++ is >60%) | < 1 | CC(C)(C)c1ccc2c(n1)N1C[C@@H](CCC(c3cc(Br)ccn3)Nc3cccc(n3)S(=O)(=O)NC2=O)CC1(C)C (single isomer, unassigned) [Compound 46]
36 | ++ (++ is 30-60%) | < 1 | CC(C)(C)c1ccc2c(n1)N1C[C@@H](CCC(c3cc(Br)ccn3)Nc3cccc(n3)S(=O)(=O)NC2=O)CC1(C)C (single isomer, unassigned) [Compound 47]
37 | ++ (++ is 30-60%) | 1 to 3 | CC(C)(C)c1ccc2c(n1)N1C[C@@H](CCC(c3cc(N)ccn3)Nc3cccc(n3)S(=O)(=O)NC2=O)CC1(C)C (single isomer, unassigned) [Compound 48]
38 | ++ (++ is 30-60%) | < 1 | CC(C)(C)c1ccc2c(n1)N1C[C@@H](CCC(c3cc(N)ccn3)Nc3cccc(n3)S(=O)(=O)NC2=O)CC1(C)C (single isomer, unassigned) [Compound 49]
